From patent US9457062B2, “Chaperonin 10-induced immunomodulation” (CBIO LIMITED, priority 2005, dated 2016)

What was measured:
[1] = molecular target: T1, TLR3 (Mus musculus, UniProt Q99MB1); assay: IFNβ ELISA of supernatants of RAW264.7 cells stimulated with polyI:C; assay type: cell-based
T1 construct: Experiments were conducted in the murine macrophage cell line RAW264.7; endogenous in cells; host or cells: RAW264.7 / RAW264-pNifty2-LUC
Description: Briefly, RAW264.7 cells were seeded at 2×10^5 cells/well in 24 well plates and cultured overnight (37° C., 5% CO2). Recombinant human Cpn10 (at concentrations between 10 μg/ml and 200 μg/ml) or buffer was added to cells in duplicate for 2 hours followed by the addition of polyI:C (tlrl-pic, InvivoGen, San Diego, Calif.) to a final concentration of 100 μg/ml. After 24 hours, supernatants were collected and analysed for IFNβ levels using a specific ELISA according to manufacturer's instructions (Cat No. 42400-1, R&D Systems Inc, Minneapolis, Minn.).

[2] = test system: RAW264.7 cells
Description: (§2) For the data shown in FIG. 34, PolyI:C (supplied by Invivogen) was dissolved in sterile saline at 5 mg/ml stored frozen at −20° C. Vials were thawed and diluted into medium. For buffer controls, the same volume and sterile saline was added to cell culture wells. […] RAW264.7 cells were grown as adherent cultures in flasks and scraped (i.e. not trypisinised) prior to seeding into 96-well plates. HeLa cells were trypsinised in the standard way prior to seeding. Cells were seeded in duplicate in a 96-well plate (5×10^3 for RAW264.7 cells and 10^4 for HeLa cells in 50 μl medium per well). After 4 h, Cpn10 was added (in 50 μl diluted in medium) and after a further 30 mins polyI:C was added (in 50 μl diluted in medium). The cells were then incubated overnight in the 96-well plates and then RRV was added (MOI=1 for RAW264.7 cells, and MOI=10 for HeLa cells in 50 μl). After 3 days, the cells were fixed, stained with crystal violet, washed, dried and dye extracted with 100% methanol and read at A595 nm as described (Antalis et al, J Exp Med 1998, 187(11):1799). […] Titrations were established to determine the dose required for induction of anti-viral resistance for RAW264.7 cells and HeLa cells.

[3] = test system: HeLa cells
Description: as §2

[4] = test system: Cpn10 promoter; assay: Cpn10 promoter luciferase reporter (pCAT/LUC-CPN) in RAW264.7 cells; assay type: cell-based, mouse; conditions: for up-regulation of the Cpn10 promoter: optimal agonist concentrations (FIG. 18H): IFNγ 1 ng/ml, IL-1β 1 ng/ml, TNF-α 100 ng/ml
Excerpt: Reagents. Recombinant human Cpn10 was produced to GMP specifications by BresaGen Limited (Adelaide, Aus) essentially as described previously (Johnson, B. 2005. J. Biol Chem 280:4037-4047). […] For FACS analysis, a cysteine residue was engineered onto the C-terminus of Cpn10 and labeled with AlexFluor647 (Invitrogen) according to manufacturer's instructions. […] TLR ligands and cytokines included: E. coli LPS (strain 055:B5, Sigma), E. coli ultra-pure LPS (0111:B4 Sigma), S. aureus LTA, B. subtilis LTA, S. aureus PGN, B. subtilis PGN, zymosan cell wall from S. cerevisae, poly(I:C), imiquimod R837, CpG ODN 1826 and ODN2216, GpC ODN1826 control, (all from Invivogen, San Diego, Calif.), recombinant mouse IFNγ, (Chemicon), IL-1β (PeproTech), and recombinant human TNF-α (Invivogen). Antibodies. Rabbit polyclonal antibodies were raised against Cpn10 and affinity purified at CBio. Cytometric Bead Array (CBA) Flex Sets recognizing phosphorylated signal proteins (both human and mouse) including ERK1/2 (T202/Y204), JNK1/2 (T183/Y185), p38/MAPKinase (T180/Y182), CD14, and FcBlock (CD16/CD32) were from BD. Transfection, Cell Stimulation and Promoter analysis. The pCAT/LUC-CPN promoter construct was provided by M. Ryan and N. Hoogenraad (La Trobe University, Melbourne). RAW264.7 cells were transiently transfected using GeneJuice (Novagen). After 24 h cells were harvested and cell viability assessed by trypan blue dye exclusion. Cells were seeded into 24-well plates and heat shocked (43° C. for 15 min (mild), 30 min (moderate), or 60 min (severe)) followed by recovery at 37° C. or stimulated after 18 h. Cells were washed, harvested in Cell Culture Lysis Reagent (CCLR, Promega) and firefly luciferase signal measured using the Luciferase Assay System (Promega) and the Wallac Victor 2 Multilabel Counter (Perkin-Elmer). Real-time PCR. RAW264.7 cells were seeded at 2.5×10^5/ml in sterile 24 well plates and adhered for 16-20 hrs prior to stimulation. […] Cells were assessed for viability, pooled per condition (n=4), pelleted by centrifugation and resuspended in CCLR.

[5] = test system: GM1; assay: FRET with GM1 (lipid rafts) on MonoMac 6 cells; assay type: binding, human; conditions: donor GM1
Description: (§1) Cell labeling for FRET. MonoMac 6 cells (a human monocytic cell line) were labeled with 100 μl of a mixture of donor conjugated antibody (Cy3) and acceptor conjugated antibody (Cy5). For labelling of Cpn10, an anti-Cpn10 rabbit polyclonal antibody was used. The cells were rinsed twice in PBS/0.02% BSA, prior to fixation with 4% formaldehyde for 15 min. The cells were fixed in order to prevent potential re-organisation of the proteins during the course of the experiment. Confocal imaging. Cells were imaged on a Carl Zeiss, Inc. LSM510 confocal microscope (with an Axiovert 200 fluorescent microscope) using a 1.4 NA 63× Zeiss objective. The images were analysed using LSM 2.5 image analysis software (Carl Zeiss, Inc.). Cy3 and Cy5 were detected using the appropriate filter sets. Using typical exposure times for image acquisition (less than 5 s), no fluorescence was observed from a Cy3-labelled specimen using the Cy5 filters, nor was Cy5 fluorescence detected using the Cy3 filter sets. FRET measurements. FRET is a non-invasive imaging technique used to determine molecular proximity. […]
In the present study, FRET was measured using a method as previously described (Kenworthy and Edidin (1998) Journal of Cell Biology 142: 69-84; Kenworthy and Edidin (1998) in Gelb, M. H. (Ed.) Methods in molecular Biology. Humana Press Inc, Totowa, N.J. pp 37-49). […]

[6] = molecular target: T2, CD14 (Homo sapiens, UniProt P08571); assay: FRET with CD14 on MonoMac 6 cells; assay type: binding
T2 construct: MonoMac 6 cells (a human monocytic cell line); endogenous in cells; host or cells: MonoMac 6
T2 sequence (P08571 20-345): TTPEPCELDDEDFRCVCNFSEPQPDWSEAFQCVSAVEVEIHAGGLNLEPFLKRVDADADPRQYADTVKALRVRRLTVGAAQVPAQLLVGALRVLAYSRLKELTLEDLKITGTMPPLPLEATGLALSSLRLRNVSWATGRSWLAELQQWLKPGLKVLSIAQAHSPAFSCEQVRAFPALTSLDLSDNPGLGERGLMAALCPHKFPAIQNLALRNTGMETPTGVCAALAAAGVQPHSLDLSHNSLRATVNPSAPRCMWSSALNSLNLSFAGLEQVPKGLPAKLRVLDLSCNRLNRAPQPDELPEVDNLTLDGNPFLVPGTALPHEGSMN
Description: as §1, with “used. […]” for “used. The cells were rinsed twice in PBS/0.02% BSA, prior to fixation with 4% formaldehyde for 15 min.”, “measurements. […] In the present study,” for “measurements.”, “FRET was measured using” for “FRET is”, “a method as previously described (Kenworthy and […] (1998) Journal of Cell Biology 142: 69-84; Kenworthy and […] (1998) in Gelb, M. H. (Ed.) Methods in” for “a non-invasive imaging technique used to determine”, “molecular Biology. Humana Press Inc, Totowa, N.J. pp 37-49). Briefly, samples were labeled with donor and acceptor conjugated antibodies, and energy transfer was detected as an increase in donor fluorescence (dequenching) after complete photobleaching of the acceptor molecule.” for “molecular proximity.”

[7] = molecular target: T3, TLR4 (Homo sapiens, UniProt O00206); assay: FRET with TLR4 on MonoMac 6 cells; assay type: binding
T3 construct: endogenous in cells; host or cells: freshly isolated human monocytes; human monocyte-derived DC
Description: as §1, with “used. […]” for “used. The cells were rinsed twice in PBS/0.02% BSA, prior to fixation with 4% formaldehyde for 15 min.”, “measurements. […] In the present study,” for “measurements.”, “FRET was measured using” for “FRET is”, “a method as previously described (Kenworthy and […] (1998) Journal of Cell Biology 142: 69-84; Kenworthy and […] (1998) in Gelb, M. H. (Ed.) Methods in” for “a non-invasive imaging technique used to determine”, “molecular Biology. Humana Press Inc, Totowa, N.J. pp 37-49). Briefly, samples were labeled with donor and acceptor conjugated antibodies, and energy transfer was detected as an increase in donor fluorescence (dequenching) after complete photobleaching of the acceptor molecule.” for “molecular proximity.”

[8] = test system: Hsp70; assay: FRET with Hsp70 on MonoMac 6 cells; assay type: binding, human
Description: as §1, with “used. […]” for “used. The cells were rinsed twice in PBS/0.02% BSA, prior to fixation with 4% formaldehyde for 15 min.”, “measurements. […] In the present study,” for “measurements.”, “FRET was measured using” for “FRET is”, “a method as previously described (Kenworthy and […] (1998) Journal of Cell Biology 142: 69-84; Kenworthy and […] (1998) in Gelb, M. H. (Ed.) Methods in” for “a non-invasive imaging technique used to determine”, “molecular Biology. Humana Press Inc, Totowa, N.J. pp 37-49). Briefly, samples were labeled with donor and acceptor conjugated antibodies, and energy transfer was detected as an increase in donor fluorescence (dequenching) after complete photobleaching of the acceptor molecule.” for “molecular proximity.”

[9] = test system: Hsp90; assay: FRET with Hsp90 on MonoMac 6 cells; assay type: binding, human
Description: as §1, with “used. […]” for “used. The cells were rinsed twice in PBS/0.02% BSA, prior to fixation with 4% formaldehyde for 15 min.”, “measurements. […] In the present study,” for “measurements.”, “FRET was measured using” for “FRET is”, “a method as previously described (Kenworthy and […] (1998) Journal of Cell Biology 142: 69-84; Kenworthy and […] (1998) in Gelb, M. H. (Ed.) Methods in” for “a non-invasive imaging technique used to determine”, “molecular Biology. Humana Press Inc, Totowa, N.J. pp 37-49). Briefly, samples were labeled with donor and acceptor conjugated antibodies, and energy transfer was detected as an increase in donor fluorescence (dequenching) after complete photobleaching of the acceptor molecule.” for “molecular proximity.”

[10] = molecular target: T4, CXCR4 (Homo sapiens, UniProt P61073); assay: FRET with CXCR4 on MonoMac 6 cells; assay type: binding
T4 construct: MonoMac 6 cells (a human monocytic cell line); endogenous in cells; host or cells: MonoMac 6
Description: as §1, with “used. […]” for “used. The cells were rinsed twice in PBS/0.02% BSA, prior to fixation with 4% formaldehyde for 15 min.”, “measurements. […] In the present study,” for “measurements.”, “FRET was measured using” for “FRET is”, “a method as previously described (Kenworthy and […] (1998) Journal of Cell Biology 142: 69-84; Kenworthy and […] (1998) in Gelb, M. H. (Ed.) Methods in” for “a non-invasive imaging technique used to determine”, “molecular Biology. Humana Press Inc, Totowa, N.J. pp 37-49). Briefly, samples were labeled with donor and acceptor conjugated antibodies, and energy transfer was detected as an increase in donor fluorescence (dequenching) after complete photobleaching of the acceptor molecule.” for “molecular proximity.”

[11] = test system: RAW264.7 cells; assay: ELISA of endogenous Cpn10 in RAW264.7 culture supernatants and cell lysates; assay type: cell-based, mouse
Excerpt: Reagents. Recombinant human Cpn10 was produced to GMP specifications by BresaGen Limited (Adelaide, Aus) essentially as described previously (Johnson, B. 2005. J. Biol Chem 280:4037-4047). […] For FACS analysis, a cysteine residue was engineered onto the C-terminus of Cpn10 and labeled with AlexFluor647 (Invitrogen) according to manufacturer's instructions. […] TLR ligands and cytokines included: E. coli LPS (strain 055:B5, Sigma), E. coli ultra-pure LPS (0111:B4 Sigma), S. aureus LTA, B. subtilis LTA, S. aureus PGN, B. subtilis PGN, zymosan cell wall from S. cerevisae, poly(I:C), imiquimod R837, CpG ODN 1826 and ODN2216, GpC ODN1826 control, (all from Invivogen, San Diego, Calif.), recombinant mouse IFNγ, (Chemicon), IL-1β (PeproTech), and recombinant human TNF-α (Invivogen). Antibodies. Rabbit polyclonal antibodies were raised against Cpn10 and affinity purified at CBio. […] After 24 h cells were harvested and cell viability assessed by trypan blue dye exclusion. […] Cells were washed, harvested in Cell Culture Lysis Reagent (CCLR, Promega) and firefly luciferase signal measured using the Luciferase Assay System (Promega) and the Wallac Victor 2 Multilabel Counter (Perkin-Elmer). […] Cells were assessed for viability, pooled per condition (n=4), pelleted by centrifugation and resuspended in CCLR.

[12] = test system: Cpn10 mRNA; assay: Cpn10 mRNA real-time PCR in RAW264.7 cells; assay type: cell-based, mouse; conditions: maximal induction at 18 h, near baseline by 24 h

T1 sequence (Q99MB1 26-905): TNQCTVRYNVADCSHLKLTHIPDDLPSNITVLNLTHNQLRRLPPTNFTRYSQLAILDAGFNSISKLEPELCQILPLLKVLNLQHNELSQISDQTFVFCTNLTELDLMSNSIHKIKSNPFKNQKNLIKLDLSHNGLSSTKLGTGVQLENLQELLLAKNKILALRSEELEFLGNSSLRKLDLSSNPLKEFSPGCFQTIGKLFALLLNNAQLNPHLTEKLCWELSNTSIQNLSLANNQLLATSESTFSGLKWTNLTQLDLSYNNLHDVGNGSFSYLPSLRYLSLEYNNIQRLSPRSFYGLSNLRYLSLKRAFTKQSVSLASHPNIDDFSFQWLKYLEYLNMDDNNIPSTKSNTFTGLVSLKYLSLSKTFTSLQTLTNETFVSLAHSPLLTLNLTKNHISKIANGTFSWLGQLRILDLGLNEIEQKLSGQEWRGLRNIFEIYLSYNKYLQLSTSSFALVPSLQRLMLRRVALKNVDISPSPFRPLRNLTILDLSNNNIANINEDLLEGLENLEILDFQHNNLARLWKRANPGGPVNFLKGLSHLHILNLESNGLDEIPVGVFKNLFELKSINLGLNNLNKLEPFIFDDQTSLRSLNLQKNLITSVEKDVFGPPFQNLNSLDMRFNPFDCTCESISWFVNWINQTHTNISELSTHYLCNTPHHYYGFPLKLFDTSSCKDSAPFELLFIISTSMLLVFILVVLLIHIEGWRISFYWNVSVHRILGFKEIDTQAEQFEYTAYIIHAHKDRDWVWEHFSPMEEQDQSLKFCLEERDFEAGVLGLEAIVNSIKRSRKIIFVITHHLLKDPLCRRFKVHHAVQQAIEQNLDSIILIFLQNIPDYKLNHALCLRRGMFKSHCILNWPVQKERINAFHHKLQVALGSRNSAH
T3 sequence (O00206 24-839): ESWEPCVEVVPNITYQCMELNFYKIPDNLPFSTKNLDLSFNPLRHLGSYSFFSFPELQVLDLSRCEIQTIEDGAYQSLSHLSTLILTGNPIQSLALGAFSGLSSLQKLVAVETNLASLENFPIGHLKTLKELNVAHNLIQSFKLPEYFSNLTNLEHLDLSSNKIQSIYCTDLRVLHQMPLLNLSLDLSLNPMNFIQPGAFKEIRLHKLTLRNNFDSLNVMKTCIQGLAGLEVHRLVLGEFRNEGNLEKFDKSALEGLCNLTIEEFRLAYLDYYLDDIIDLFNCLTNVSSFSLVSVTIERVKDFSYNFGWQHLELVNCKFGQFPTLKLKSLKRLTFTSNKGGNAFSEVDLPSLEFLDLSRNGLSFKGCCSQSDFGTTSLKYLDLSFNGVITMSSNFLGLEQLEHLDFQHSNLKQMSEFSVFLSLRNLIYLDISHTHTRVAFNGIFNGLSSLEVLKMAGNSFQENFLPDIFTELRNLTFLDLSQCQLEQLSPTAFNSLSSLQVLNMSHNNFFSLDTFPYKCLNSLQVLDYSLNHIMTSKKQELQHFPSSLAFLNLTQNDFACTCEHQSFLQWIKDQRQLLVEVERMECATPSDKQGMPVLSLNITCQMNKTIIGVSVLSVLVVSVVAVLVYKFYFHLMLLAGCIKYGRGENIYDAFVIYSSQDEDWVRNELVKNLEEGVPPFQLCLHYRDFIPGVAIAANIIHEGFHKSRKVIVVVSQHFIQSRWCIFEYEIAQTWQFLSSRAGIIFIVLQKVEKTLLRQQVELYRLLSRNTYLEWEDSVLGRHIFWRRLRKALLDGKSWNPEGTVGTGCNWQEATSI
T4 sequence (P61073 whole entry): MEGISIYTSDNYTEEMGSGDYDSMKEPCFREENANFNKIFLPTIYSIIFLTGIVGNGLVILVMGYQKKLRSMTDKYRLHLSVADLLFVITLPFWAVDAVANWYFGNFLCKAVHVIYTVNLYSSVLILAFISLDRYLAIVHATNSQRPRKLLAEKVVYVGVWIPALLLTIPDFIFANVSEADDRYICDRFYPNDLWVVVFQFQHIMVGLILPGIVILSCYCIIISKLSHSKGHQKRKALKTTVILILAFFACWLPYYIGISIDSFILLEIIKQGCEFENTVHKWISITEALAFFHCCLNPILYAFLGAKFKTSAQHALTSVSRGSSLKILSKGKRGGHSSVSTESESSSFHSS

polyinosinic-polysytidilic acid [polyI:C]
IFNβ released into culture supernatants ([1]; polyI:C at 100 μg/ml, absence of Cpn10): 292 pg/mL | concentrations showing clear signs of toxicity [2]: 5000 to 10000 ng/mL | toxicity [3]: No such toxicity was observed

TNF-α
up-regulation of the Cpn10 promoter [4]: did not induce substantial up-regulation

GroES: E. coli homologue of Cpn10, routinely used as a negative control
effect on polyI:C-induced IFNβ levels in culture supernatants ([1]; polyI:C stimulation, 10-200 μg/ml protein): did not modulate the production of IFN-β | E ± ΔE (%) energy transfer efficiency ([5]; MM6 cells stimulated with LPS): 6 ± 1.0% | E ± ΔE (%) energy transfer efficiency ([5]; Unstimulated MM6 cells): 7 ± 1.5% | E ± ΔE (%) energy transfer efficiency ([6]; MM6 cells stimulated with LPS): 7 ± 0.5% | E ± ΔE (%) energy transfer efficiency ([6]; Unstimulated MM6 cells): 8 ± 1.0% | E ± ΔE (%) energy transfer efficiency ([7]; MM6 cells stimulated with LPS): 8 ± 1.0% | E ± ΔE (%) energy transfer efficiency ([7]; Unstimulated MM6 cells): 7 ± 1.5% | E ± ΔE (%) energy transfer efficiency ([8]; MM6 cells stimulated with LPS): 7 ± 1.5% | E ± ΔE (%) energy transfer efficiency ([8]; Unstimulated MM6 cells): 6 ± 1.0% | E ± ΔE (%) energy transfer efficiency ([9]; MM6 cells stimulated with LPS): 8 ± 2.0% | E ± ΔE (%) energy transfer efficiency ([9]; Unstimulated MM6 cells): 7 ± 1.5% | E ± ΔE (%) energy transfer efficiency ([10]; MM6 cells stimulated with LPS): 3 ± 1.0% | E ± ΔE (%) energy transfer efficiency ([10]; Unstimulated MM6 cells): 4 ± 2.0%

lipoteichoic acid [LTA]
induction of the Cpn10 promoter ([4]; 24 hour stimulation, constant at 30 hours): 2.7 fold | intracellular Cpn10 levels in cell lysates ([11]; LTA treated vs control cells): little change in intracellular Cpn10 levels | increase in soluble (extracellular) Cpn10 in culture supernatants over unstimulated control cells ([11]; after 30 h, 100 μg/ml LTA): 3 fold | induction of Cpn10 mRNA [12]: concentration-dependent induction of Cpn10 mRNA

IL-1β: IL-1β (PeproTech), non-TLR agonist
up-regulation of the Cpn10 promoter [4]: did not induce substantial up-regulation
